Results: patent US12162881B2, “Forms and compositions of inhibitors of JAK2” (Ajax Therapeutics, Inc., priority 2021, dated 2024)
Converted amounts (≈) assume the structure as drawn. Read-outs that look alike come from different tables or passages of the source.

Tests used:
Assay type in all cases: physicochemical
[1] = Variable relative humidity XRPD (VRH-XRPD)
Procedure: XRPD patterns were collected with a PANalytical X'Pert PRO MPD diffractometer using an incident beam of Cu Kα radiation produced using a long, fine-focus source and a nickel filter. The diffractometer was configured using the symmetric Bragg-Brentano geometry. Data were collected and analyzed using Data Collector software v. 5.5. Prior to the analysis, a silicon specimen (NIST SRM 640f) was analyzed to verify the observed position of the Si 111 peak is consistent with the NIST-certified position. A specimen of the sample was packed in a nickel-coated copper well. Antiscatter slits (SS) were used to minimize the background generated by air. Soller slits for the incident and diffracted beams were used to minimize broadening from axial divergence. Diffraction patterns were collected using a scanning position-sensitive detector (X'Celerator) located 240 mm from the sample and Data Collector software v. 5.5.
An Anton Paar temperature-humidity chamber (THC) was used while collecting in-situ XRPD patterns as a function of humidity. The temperature of the specimen was changed with a Peltier thermoelectric device located directly under the specimen holder and monitored with a platinum-100 resistance sensor located in the specimen holder. The thermoelectric device was powered and controlled by an Anton Paar TCU 50 interfaced with Data Collector. The humidity was generated with an RH-200 manufactured by VTI Inc. and carried by a flow of nitrogen gas. The humidity was monitored by a HygroClip sensor manufactured by Rotronic located next to the specimen inside the THC.
VRH-XRPD analysis was conducted to help determine water activity boundary for the solid-state conversion between hydrated Form A and anhydrous Form B. This method was utilized due the observed high tendency of Compound 1 to form solvates, which precluded the use of solvent-mediated approach.
Overall, two VRH-XRPD experiments were conducted to qualitatively evaluate RH conditions leading to predominance of Form A over Form B and vice versa. The kinetic component was not assessed.
The first VRH-XRPD experiment was conducted with a goal of observing dehydration of hydrated Form A. An initial XRPD scan was, therefore, acquired on Form A equilibrated in-situ at ambient RH for 45 minutes, which at the time of the analysis was ˜30%. The XRPD pattern from this scan was consistent with Form A (FIG. 39, top).
XRPD patterns were collected throughout the course of the experiment, each with a 10 minute scan.
XRPD patterns were collected throughout the course of the experiment, each with a 10 minute scan. The XRPD patterns remained Form B until the RH reached approximately 60% RH, where Form A became the primary phase with some Form B remaining (FIG. 41, top two spectra). Further decrease of Form B was observed through the remainder of the 60% RH hold at which point the experiment ended (FIG. 41, bottom two spectra). Complete conversion to Form A from Form B was not observed under these conditions.

[2] = Dynamic vapor sorption (DVS) hygroscopicity; conditions: for Hysteresis: in % (unit assumed)
Procedure: Automated vapor sorption (VS) data were collected on a Surface Measurement System DVS Intrinsic instrument. Samples were not dried prior to analysis. Sorption and desorption data were collected over a range from 5% to 95% RH at 10% RH increments under a nitrogen purge. The equilibrium criterion used for analysis was less than 0.0100% weight change in 5 minutes with a maximum equilibration time of 3 hours. Data were not corrected for the initial moisture content of the samples.

[3] = Kinetic solubility of Compound 1 Lot II, visually estimated at ambient temperature; conditions: thermodynamic from solid
Procedure: Kinetic solubility of Compound 1 Lot II was visually estimated at ambient temperature (Table 22). Aliquots of various solvents were added to weighed samples of Compound 1 Lot II with agitation at ambient temperature until complete dissolution was achieved, as judged by visual observation. If dissolution occurred after the addition of the first aliquot, values were reported as “>”.

[4] = Target RH 5.0%, listed as Lot II
[5] = Target RH 15.0%, listed as Lot II
[6] = Target RH 25.0%, listed as Lot II
[7] = Target RH 35.0%, listed as Lot II
[8] = Target RH 45.0%, listed as Lot II
[9] = Target RH 55.0%, listed as Lot II
[10] = Target RH 65.0%, listed as Lot II
[11] = Target RH 75.0%, listed as Lot II
[12] = Target RH 85.0%, listed as Lot II
[13] = Target RH 95.0%, listed as Lot II
[14] = desorption from 95% to 5% RH, listed as Lot II
[15] = sorption from 5% to 95% RH, listed as Lot II

In the case of `CC(=O)Nc1cc(Oc2cnc3nc(Nc4cc(C(F)(F)F)cn(C)c4=O)n(C)c3c2C#N)ccn1` [Compound 1 Form B, N-(4-((7-cyano-1-methyl-2-((1-methyl-2-oxo-5-(trifluoromethyl)-1,2-dihydropyridin-3-yl)amino)-1H-imidazo[4,5-b]pyridin-6-yl)oxy)pyridin-2-yl)acetamide], the “RH at which Form A became the primary phase” value ([1]; Experiment 2, RH incrementally increased from 15%, starting from Form B) is reported as “approximately 60 % RH”, the “RH below which the form likely exists” value ([1]; VRH-XRPD and DVS data combined) is reported as “below 20 % RH” and the “RH up to which the form may be kinetically stable” value ([1]; VRH-XRPD and DVS data combined) is reported as 40-60 % RH.

In the case of `CC(=O)Nc1cc(Oc2cnc3nc(Nc4cc(C(F)(F)F)cn(C)c4=O)n(C)c3c2C#N)ccn1` [Compound 1 Lot II, N-(4-((7-cyano-1-methyl-2-((1-methyl-2-oxo-5-(trifluoromethyl)-1,2-dihydropyridin-3-yl)amino)-1H-imidazo[4,5-b]pyridin-6-yl)oxy)pyridin-2-yl)acetamide], the “Desorp Mass Change (%)” value [2, 4] is reported as −0.019%, the “Sorp Mass Change (%)” value [2, 4] is reported as 0.000% and the “Desorp Mass Change (%)” value [2, 5] is reported as 0.332%. The “Sorp Mass Change (%)” value [2, 5] was 0.152%, the Hysteresis [2, 5] was 0.180 and the “Desorp Mass Change (%)” value [2, 6] was 5.623%. For the same compound, the “Sorp Mass Change (%)” value [2, 6] was 0.250%, the Hysteresis [2, 6] was 5.373 and the “Desorp Mass Change (%)” value [2, 7] was 6.984%. The “Sorp Mass Change (%)” value [2, 7] was 1.468%, the Hysteresis [2, 7] was 5.516 and the “Desorp Mass Change (%)” value [2, 8] was 7.374%. For the same compound, the “Sorp Mass Change (%)” value [2, 8] was 4.861%, the Hysteresis [2, 8] was 2.513 and the “Desorp Mass Change (%)” value [2, 9] was 7.842%. For the same compound, the Sorp Mass Change (%) [2, 9] was 6.99%, the Hysteresis [2, 9] was 0.848 and the “Desorp Mass Change (%)” value [2, 10] was 8.505%. For the same compound, the “Sorp Mass Change (%)” value [2, 10] was 7.697%, the Hysteresis [2, 10] was 0.808 and the “Desorp Mass Change (%)” value [2, 11] was 8.972%. The “Sorp Mass Change (%)” value [2, 11] was 8.454%, the Hysteresis [2, 11] was 0.518 and the “Desorp Mass Change (%)” value [2, 12] was 9.206%. For the same compound, the “Sorp Mass Change (%)” value [2, 12] was 9.042%, the Hysteresis [2, 12] was 0.164 and the “Desorp Mass Change (%)” value [2, 13] was 9.408%. For the same compound, the “Sorp Mass Change (%)” value [2, 13] was 9.408%, the “DVS weight loss upon desorption” value [2, 14] was 9.4% and the “DVS weight loss upon desorption as water” value [2, 14] was “approximately 2.9 mol/mol H2O”. For the same compound, the “post-DVS XRPD” value ([2]; solid recovered after DVS cycle, listed as Lot II) was “mostly Form B with some peaks attributed to Form O present”, the DVS weight gain [2, 15] was 9.4% and the “DVS weight gain as water uptake” value [2, 15] was “approximately 2.9 mol/mol H2O”. For the same compound, the DVS weight gain ([2]; sorption from 25% to 55% RH) was 6.7%, the “DVS weight gain as water uptake” value ([2]; sorption from 25% to 55% RH) was roughly 2.0 mol/mol H2O and the DVS hysteresis observation ([2]; sorption/desorption 5-95% RH, listed as Lot II) was “Hysteresis was observed”. For the same compound, the solubility ([3]; 5:95 HFIPA/H2O (v/v), aqueous with cosolvent or surfactant or cyclodextrin, 5:95 HFIPA/H2O (v/v), ambient temperature, read-out: Solubility (mg/mL)) was less than 1 mg/mL, the solubility ([3]; 50:50 DMA/H2O (v/v), aqueous with cosolvent or surfactant or cyclodextrin, 50:50 DMA/H2O (v/v), ambient temperature, read-out: Solubility (mg/mL)) was less than 1 mg/mL and the solubility ([3]; 50:50 MeOH/CHCl3 (v/v), organic solvent or mixture, 50:50 MeOH/CHCl3 (v/v), ambient temperature, read-out: Solubility (mg/mL)) was 5 to 20 mg/mL (≈ 10 to 40.1 mM). The solubility ([3]; 50:50 MeOH/DCM (v/v), organic solvent or mixture, 50:50 MeOH/DCM (v/v), ambient temperature, read-out: Solubility (mg/mL)) was 5 to 20 mg/mL (≈ 10 to 40.1 mM), the solubility ([3]; 50:50 MeOH/H2O (v/v), aqueous with cosolvent or surfactant or cyclodextrin, 50:50 MeOH/H2O (v/v), ambient temperature, read-out: Solubility (mg/mL)) was less than 1 mg/mL and the solubility ([3]; 50:50 TFE/H2O (v/v), aqueous with cosolvent or surfactant or cyclodextrin, 50:50 TFE/H2O (v/v), ambient temperature, read-out: Solubility (mg/mL)) was 1 to 4.9 mg/mL (≈ 2.01 to 9.83 mM). It also gave a solubility ([3]; 50:50 THF/H2O (v/v), aqueous with cosolvent or surfactant or cyclodextrin, 50:50 THF/H2O (v/v), ambient temperature, read-out: Solubility (mg/mL)) of 1 to 4.9 mg/mL (≈ 2.01 to 9.83 mM), a solubility ([3]; 50:50 acetone/water (v/v), aqueous with cosolvent or surfactant or cyclodextrin, 50:50 acetone/water (v/v), ambient temperature, read-out: Solubility (mg/mL)) of 1 to 4.9 mg/mL (≈ 2.01 to 9.83 mM) and a solubility ([3]; ACN, organic solvent or mixture, ACN, ambient temperature, read-out: Solubility (mg/mL)) of less than 1 mg/mL. The solubility ([3]; AcOH, organic solvent or mixture, AcOH, ambient temperature, read-out: Solubility (mg/mL)) was 5 to 20 mg/mL (≈ 10 to 40.1 mM), the solubility ([3]; CHCl3, organic solvent or mixture, CHCl3, ambient temperature, read-out: Solubility (mg/mL)) was less than 1 mg/mL and the solubility ([3]; DCM, organic solvent or mixture, DCM, ambient temperature, read-out: Solubility (mg/mL)) was less than 1 mg/mL. For the same compound, the solubility ([3]; DMA, organic solvent or mixture, DMA, ambient temperature, read-out: Solubility (mg/mL)) was 5 to 20 mg/mL (≈ 10 to 40.1 mM), the solubility ([3]; DMF, organic solvent or mixture, DMF, ambient temperature, read-out: Solubility (mg/mL)) was 1 to 4.9 mg/mL (≈ 2.01 to 9.83 mM) and the solubility ([3]; DMSO, organic solvent or mixture, DMSO, ambient temperature, read-out: Solubility (mg/mL)) was 5 to 20 mg/mL (≈ 10 to 40.1 mM). It also gave a solubility ([3]; H2O, water, H2O, ambient temperature, read-out: Solubility (mg/mL)) of less than 1 mg/mL, a solubility ([3]; HFIPA, organic solvent or mixture, HFIPA, ambient temperature, read-out: Solubility) of 84 mg/mL (≈ 169 mM) and a solubility ([3]; HFIPA, organic solvent or mixture, HFIPA, ambient temperature, read-out: Solubility (mg/mL)) of 5 to 20 mg/mL (≈ 10 to 40.1 mM). The solubility ([3]; MeOH, organic solvent or mixture, MeOH, ambient temperature, read-out: Solubility (mg/mL)) was less than 1 mg/mL, the solubility ([3]; NMP, organic solvent or mixture, NMP, ambient temperature, read-out: Solubility (mg/mL)) was 5 to 20 mg/mL (≈ 10 to 40.1 mM) and the solubility ([3]; TFE, organic solvent or mixture, TFE, ambient temperature, read-out: Solubility (mg/mL)) was 5 to 20 mg/mL (≈ 10 to 40.1 mM). It also gave a solubility ([3]; THF, organic solvent or mixture, THF, ambient temperature, solution almost completely clear after 24 h, read-out: Solubility (mg/mL)) of 1 to 4.9 mg/mL (≈ 2.01 to 9.83 mM), a solubility ([3]; THF, organic solvent or mixture, THF, left at ambient temperature overnight, read-out: Solubility) of no less than 1 mg/mL and a solubility ([3]; acetone, organic solvent or mixture, Acetone, ambient temperature, read-out: Solubility (mg/mL)) of less than 1 mg/mL. For the same compound, the solubility ([3]; ethylene glycol, organic solvent or mixture, Ethylene glycol, ambient temperature, read-out: Solubility (mg/mL)) was less than 1 mg/mL and the solubility ([3]; organic solvent or mixture, AcOH, DMF, DMSO, 50:50 MeOH/DCM, 50:50 MeOH/CHCl3, NMP, TFE, and 50:50 TFE/H2O, ambient temperature, read-out: Solubility (limited solubility values)) was 1 to 20 mg/mL (≈ 2.01 to 40.1 mM).
